# Assay results: PubChem BioAssay (NCI)
#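 Protocol summary: plate cells (96-well), add compound at 5 concentrations, incubate 48 h, interpolate endpoints linearly. TGI is the concentration that stops growth completely.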
# What was measured:
# Assay in all cases: NCI tumour cell line growth inhibition, 48 h
# SK-OV-3 ovarian = system: SK-OV-3 ovarian
# SN12C renal = system: SN12C renal
# OVCAR-3 ovarian = system: OVCAR-3 ovarian
# COLO 205 colon = system: COLO 205 colon
# CAKI-1 renal = system: CAKI-1 renal
# NCI-H460 lung = system: NCI-H460 lung
# HOP-18 NSCLC = system: HOP-18 NSCLC
# MOLT-4 leukemia = system: MOLT-4 leukemia
# OVCAR-5 ovarian = system: OVCAR-5 ovarian
# KM20L2 colon = system: KM20L2 colon
# DMS 273 small cell lung = system: DMS 273 small cell lung
# M14 melanoma = system: M14 melanoma
# 786-0 renal = system: 786-0 renal
# OVCAR-4 ovarian = system: OVCAR-4 ovarian
# HOP-92 NSCLC = system: HOP-92 NSCLC
# SK-MEL-5 melanoma = system: SK-MEL-5 melanoma
# K-562 leukemia = system: K-562 leukemia
# DMS 114 small cell lung = system: DMS 114 small cell lung
# ACHN renal = system: ACHN renal
# IGROV1 ovarian = system: IGROV1 ovarian
# SK-MEL-28 melanoma = system: SK-MEL-28 melanoma
# SNB-19 CNS = system: SNB-19 CNS
# KM12 colon = system: KM12 colon
# RPMI-8226 leukemia = system: RPMI-8226 leukemia
# NCI-H23 lung = system: NCI-H23 lung
# SNB-75 CNS = system: SNB-75 CNS
# A498 renal = system: A498 renal
# CCRF-CEM leukemia = system: CCRF-CEM leukemia
# OVCAR-8 ovarian = system: OVCAR-8 ovarian
# SW-620 colon = system: SW-620 colon
# LOX IMVI melanoma = system: LOX IMVI melanoma
# NCI-H522 lung = system: NCI-H522 lung
# SF-295 CNS = system: SF-295 CNS
# U251 CNS = system: U251 CNS
# MALME-3M melanoma = system: MALME-3M melanoma
# HCT-15 colon = system: HCT-15 colon
# HL-60(TB) leukemia = system: HL-60(TB) leukemia
# A549 NSCLC = system: A549 NSCLC
# RXF 393 renal = system: RXF 393 renal
# SF-539 CNS = system: SF-539 CNS
# UO-31 renal = system: UO-31 renal
# HT29 colon = system: HT29 colon
# HCC-2998 colon = system: HCC-2998 colon
# TK-10 renal = system: TK-10 renal
# HCT-116 colon = system: HCT-116 colon
# UACC-62 melanoma = system: UACC-62 melanoma
# HOP-62 NSCLC = system: HOP-62 NSCLC
# SF-268 CNS = system: SF-268 CNS
# SK-MEL-2 melanoma = system: SK-MEL-2 melanoma
# DLD-1 colon = system: DLD-1 colon
# LXFL 529 NSCLC = system: LXFL 529 NSCLC
# SNB-78 CNS = system: SNB-78 CNS
# RXF-631 renal = system: RXF-631 renal
# M19-MEL melanoma = system: M19-MEL melanoma
# SR leukemia = system: SR leukemia
# EKVX NSCLC = system: EKVX NSCLC
# XF 498 CNS = system: XF 498 CNS
# UACC-257 melanoma = system: UACC-257 melanoma
# NCI-H226 lung = system: NCI-H226 lung
smiles,measurement,setting,value
S=c1nc[nH]c2c1ncn2C1CCCO1 (stereo not given),TGI,SK-OV-3 ovarian,> 100 µM
same,TGI,SN12C renal,> 100 µM
same,TGI,OVCAR-3 ovarian,> 100 µM
same,TGI,COLO 205 colon,> 100 µM
same,TGI,CAKI-1 renal,> 100 µM
same,TGI,NCI-H460 lung,> 100 µM
same,TGI,HOP-18 NSCLC,> 100 µM
same,TGI,MOLT-4 leukemia,> 100 µM
same,TGI,OVCAR-5 ovarian,> 100 µM
same,TGI,KM20L2 colon,> 100 µM
same,TGI,DMS 273 small cell lung,> 100 µM
same,TGI,M14 melanoma,> 100 µM
same,TGI,786-0 renal,> 100 µM
same,TGI,OVCAR-4 ovarian,> 100 µM
same,TGI,HOP-92 NSCLC,> 100 µM
same,TGI,SK-MEL-5 melanoma,> 100 µM
same,TGI,K-562 leukemia,> 100 µM
same,TGI,DMS 114 small cell lung,> 100 µM
same,TGI,ACHN renal,> 100 µM
same,TGI,IGROV1 ovarian,> 100 µM
same,TGI,SK-MEL-28 melanoma,> 100 µM
same,TGI,SNB-19 CNS,> 100 µM
same,TGI,KM12 colon,> 100 µM
same,TGI,RPMI-8226 leukemia,> 100 µM
same,TGI,NCI-H23 lung,> 100 µM
same,TGI,SNB-75 CNS,> 100 µM
same,TGI,A498 renal,> 100 µM
same,TGI,CCRF-CEM leukemia,> 100 µM
same,TGI,OVCAR-8 ovarian,> 100 µM
same,TGI,SW-620 colon,> 100 µM
same,TGI,LOX IMVI melanoma,> 100 µM
same,TGI,NCI-H522 lung,> 100 µM
same,TGI,SF-295 CNS,> 100 µM
same,TGI,U251 CNS,> 100 µM
same,TGI,MALME-3M melanoma,> 100 µM
same,TGI,HCT-15 colon,> 100 µM
same,TGI,HL-60(TB) leukemia,> 100 µM
same,TGI,A549 NSCLC,> 100 µM
same,TGI,RXF 393 renal,> 100 µM
same,TGI,SF-539 CNS,> 100 µM
same,TGI,UO-31 renal,> 100 µM
same,TGI,HT29 colon,> 100 µM
same,TGI,HCC-2998 colon,> 100 µM
same,TGI,TK-10 renal,> 100 µM
same,TGI,HCT-116 colon,> 100 µM
same,TGI,UACC-62 melanoma,> 100 µM
same,TGI,HOP-62 NSCLC,> 100 µM
same,TGI,SF-268 CNS,> 100 µM
same,TGI,SK-MEL-2 melanoma,> 100 µM
same,TGI,DLD-1 colon,> 100 µM
same,TGI,LXFL 529 NSCLC,> 100 µM
[Cl-].[Fe+2].c1ccc(-c2ccnc3c2ccc2c(-c4ccccc4)ccnc23)cc1.c1ccc(-c2ccnc3c2ccc2c(-c4ccccc4)ccnc23)cc1.c1ccc(-c2ccnc3c2ccc2c(-c4ccccc4)ccnc23)cc1,TGI,SNB-78 CNS,> 100 µM
same,TGI,K-562 leukemia,0.139 µM
same,TGI,A498 renal,0.39 µM
same,TGI,RXF-631 renal,> 100 µM
C/C(=N\NC(N)=S)c1ccc(C2CCCCC2)cc1,TGI,SK-OV-3 ovarian,75.9 µM
same,TGI,M19-MEL melanoma,> 100 µM
same,TGI,OVCAR-3 ovarian,30.5 µM
same,TGI,COLO 205 colon,26.1 µM
same,TGI,CAKI-1 renal,64.6 µM
same,TGI,HOP-18 NSCLC,> 100 µM
same,TGI,MOLT-4 leukemia,35.7 µM
same,TGI,OVCAR-5 ovarian,35.1 µM
same,TGI,SNB-78 CNS,91.1 µM
same,TGI,KM20L2 colon,30.1 µM
same,TGI,M14 melanoma,22.7 µM
same,TGI,786-0 renal,31.7 µM
same,TGI,OVCAR-4 ovarian,38.4 µM
same,TGI,K-562 leukemia,39.2 µM
same,TGI,DMS 114 small cell lung,29.9 µM
same,TGI,IGROV1 ovarian,62.1 µM
same,TGI,SK-MEL-28 melanoma,33.7 µM
same,TGI,SNB-19 CNS,> 100 µM
same,TGI,KM12 colon,> 100 µM
same,TGI,RPMI-8226 leukemia,> 100 µM
same,TGI,NCI-H23 lung,56.3 µM
same,TGI,SR leukemia,> 100 µM
same,TGI,OVCAR-8 ovarian,36.8 µM
same,TGI,SF-295 CNS,21 µM
same,TGI,U251 CNS,39.9 µM
same,TGI,MALME-3M melanoma,37.6 µM
same,TGI,A549 NSCLC,> 100 µM
same,TGI,RXF 393 renal,27.6 µM
same,TGI,SF-539 CNS,38 µM
same,TGI,UO-31 renal,41.8 µM
same,TGI,HT29 colon,34.5 µM
same,TGI,HCC-2998 colon,42 µM
same,TGI,TK-10 renal,80.3 µM
same,TGI,HCT-116 colon,44.6 µM
same,TGI,UACC-62 melanoma,32.2 µM
same,TGI,HOP-62 NSCLC,73.6 µM
same,TGI,SF-268 CNS,> 100 µM
same,TGI,EKVX NSCLC,> 100 µM
same,TGI,SK-MEL-2 melanoma,32.8 µM
O=C1CCC(=O)c2sccc2N1,TGI,XF 498 CNS,> 100 µM
same,TGI,SK-OV-3 ovarian,> 100 µM
same,TGI,M19-MEL melanoma,> 100 µM
same,TGI,SN12C renal,> 100 µM
same,TGI,OVCAR-3 ovarian,> 100 µM
same,TGI,COLO 205 colon,> 100 µM
same,TGI,UACC-257 melanoma,> 100 µM
same,TGI,NCI-H226 lung,> 100 µM
same,TGI,CAKI-1 renal,> 100 µM
same,TGI,NCI-H460 lung,> 100 µM
same,TGI,HOP-18 NSCLC,> 100 µM
same,TGI,MOLT-4 leukemia,> 100 µM
same,TGI,OVCAR-5 ovarian,> 100 µM
same,TGI,SNB-78 CNS,> 100 µM
same,TGI,KM20L2 colon,> 100 µM
same,TGI,DMS 273 small cell lung,> 100 µM
same,TGI,M14 melanoma,> 100 µM
same,TGI,786-0 renal,> 100 µM
same,TGI,OVCAR-4 ovarian,> 100 µM
same,TGI,HOP-92 NSCLC,> 100 µM
same,TGI,SK-MEL-5 melanoma,> 100 µM
same,TGI,K-562 leukemia,> 100 µM
same,TGI,DMS 114 small cell lung,> 100 µM
same,TGI,ACHN renal,> 100 µM
same,TGI,IGROV1 ovarian,> 100 µM
same,TGI,SK-MEL-28 melanoma,> 100 µM
same,TGI,SNB-19 CNS,> 100 µM
same,TGI,KM12 colon,> 100 µM
same,TGI,RPMI-8226 leukemia,> 100 µM
same,TGI,NCI-H23 lung,> 100 µM
same,TGI,SNB-75 CNS,> 100 µM
same,TGI,A498 renal,> 100 µM
same,TGI,CCRF-CEM leukemia,> 100 µM
same,TGI,OVCAR-8 ovarian,> 100 µM
same,TGI,SW-620 colon,> 100 µM
same,TGI,LOX IMVI melanoma,> 100 µM
same,TGI,NCI-H522 lung,> 100 µM
same,TGI,SF-295 CNS,> 100 µM
same,TGI,U251 CNS,> 100 µM
same,TGI,MALME-3M melanoma,> 100 µM
same,TGI,HCT-15 colon,> 100 µM
same,TGI,HL-60(TB) leukemia,> 100 µM
same,TGI,A549 NSCLC,> 100 µM
same,TGI,RXF 393 renal,> 100 µM
same,TGI,SF-539 CNS,> 100 µM
same,TGI,UO-31 renal,> 100 µM
same,TGI,HT29 colon,> 100 µM
same,TGI,HCC-2998 colon,> 100 µM
same,TGI,TK-10 renal,> 100 µM
same,TGI,HCT-116 colon,> 100 µM
same,TGI,HOP-62 NSCLC,> 100 µM
same,TGI,SF-268 CNS,> 100 µM
same,TGI,EKVX NSCLC,> 100 µM
same,TGI,SK-MEL-2 melanoma,> 100 µM
same,TGI,DLD-1 colon,> 100 µM
same,TGI,LXFL 529 NSCLC,> 100 µM
COC(=O)C(C(=O)C(N)=O)c1csc(-n2nc(-c3ccccc3)cc2-c2ccccc2)n1 (stereo not given),TGI,XF 498 CNS,> 31.6 µM
same,TGI,SK-OV-3 ovarian,> 31.6 µM
same,TGI,M19-MEL melanoma,> 31.6 µM
same,TGI,OVCAR-3 ovarian,> 100 µM
same,TGI,COLO 205 colon,> 31.6 µM
same,TGI,UACC-257 melanoma,> 31.6 µM
same,TGI,NCI-H226 lung,> 31.6 µM
same,TGI,CAKI-1 renal,15.5 µM
same,TGI,NCI-H460 lung,> 31.6 µM
same,TGI,HOP-18 NSCLC,> 31.6 µM
same,TGI,MOLT-4 leukemia,> 31.6 µM
same,TGI,OVCAR-5 ovarian,> 100 µM
same,TGI,SNB-78 CNS,> 31.6 µM
same,TGI,KM20L2 colon,> 31.6 µM
same,TGI,DMS 273 small cell lung,> 31.6 µM
same,TGI,M14 melanoma,> 31.6 µM
same,TGI,786-0 renal,> 31.6 µM
same,TGI,OVCAR-4 ovarian,> 31.6 µM
same,TGI,HOP-92 NSCLC,> 100 µM
same,TGI,SK-MEL-5 melanoma,> 31.6 µM
same,TGI,K-562 leukemia,> 31.6 µM
same,TGI,DMS 114 small cell lung,25.2 µM
same,TGI,ACHN renal,> 31.6 µM
same,TGI,IGROV1 ovarian,> 31.6 µM
same,TGI,SK-MEL-28 melanoma,> 31.6 µM
same,TGI,SNB-19 CNS,17.2 µM
same,TGI,KM12 colon,> 31.6 µM
same,TGI,RPMI-8226 leukemia,> 31.6 µM
same,TGI,NCI-H23 lung,> 100 µM
same,TGI,SNB-75 CNS,> 31.6 µM
same,TGI,A498 renal,> 31.6 µM
same,TGI,CCRF-CEM leukemia,> 31.6 µM
same,TGI,OVCAR-8 ovarian,> 31.6 µM
same,TGI,SW-620 colon,6.02 µM
same,TGI,LOX IMVI melanoma,> 100 µM
same,TGI,NCI-H522 lung,> 31.6 µM
same,TGI,SF-295 CNS,> 100 µM
same,TGI,U251 CNS,> 31.6 µM
same,TGI,MALME-3M melanoma,> 31.6 µM
same,TGI,HCT-15 colon,> 31.6 µM
same,TGI,HL-60(TB) leukemia,> 31.6 µM
same,TGI,A549 NSCLC,> 31.6 µM
same,TGI,RXF 393 renal,> 31.6 µM
same,TGI,SF-539 CNS,> 31.6 µM
same,TGI,UO-31 renal,28.9 µM
same,TGI,HT29 colon,> 100 µM
same,TGI,HCC-2998 colon,> 31.6 µM
same,TGI,TK-10 renal,> 31.6 µM
same,TGI,HCT-116 colon,> 31.6 µM
same,TGI,UACC-62 melanoma,> 31.6 µM
same,TGI,SF-268 CNS,> 31.6 µM
same,TGI,EKVX NSCLC,> 31.6 µM
same,TGI,SK-MEL-2 melanoma,> 31.6 µM
same,TGI,DLD-1 colon,> 31.6 µM
same,TGI,LXFL 529 NSCLC,> 31.6 µM
